Assay: Hydrolysis of 500 mg (0.5 grams) of compound in 50 mL buffer (pH 9 or pH 7) at 50 or 100° C.
Assay type: physicochemical
Description: Into a clean and dry 1 liter, 3 necked round bottom flask equipped with a nitrogen inlet was added 15 grams of triclosan in 150 ml of ethyl acetate. 15 ml of pyridine was added to the reaction mixture and the reaction mixture was left for stifling at room temperature for 10 minutes. To this stirring solution was added dropwise 24 grams of stearic acid glycolic acid chloride 27 dissolved in 30 ml of ethyl acetate and the reaction was left for stirring at room temperature for twenty four hours following which the […] salt was filtered off and the ethyl acetate layer was washed with 5% solution of sodium bicarbonate followed by drying using sodium sulphate. Ethyl acetate was distilled off using high vacuum distillation to yield 22 grams of crude 28. […]

[1] = 500 mg in 50 mL pH 9 buffer, 100° C.
[2] = 0.5 grams in 50 mL pH 9 buffer, 50° C.

| Structure (SMILES) | time to hydrolysis (Hydrolyzed in) [1] | time to hydrolysis (Hydrolyzed in) [2] | extent of hydrolysis in 53 hours (0.5 grams in 50 mL pH 7 buffer, 100° C., 53 hours) | extent of hydrolysis by TLC in 48 hours (0.5 grams in 50 mL pH 7 buffer, 50° C.) | extent of hydrolysis by TLC in 48 hours (0.5 grams in 50 mL pH 7 buffer, 100° C.) |
| --- | --- | --- | --- | --- | --- |
| CCCCCCCCCCCCCCCCCC(=O)OCC(=O)Oc1cc(Cl)ccc1Oc1ccc(Cl)cc1Cl [Example 28, Triclosan Glycolic Acid Stearate] | 27 h | – | – | – | – |
| O=C(COCCOc1ccc(OCCOCC(=O)Oc2cc(Cl)ccc2Oc2ccc(Cl)cc2Cl)cc1)Oc1cc(Cl)ccc1Oc1ccc(Cl)cc1Cl [Example 15, [2-(4-{2-[5-Chloro-2-(2,4-dichloro-phenoxy)-phenoxycarbonylmethoxy]-ethoxy}phenoxy)-ethoxy]-acetic acid 5-chloro-2-(2,4-dichloro-phenoxy)-phenyl ester] | – | Hydrolyzed in 150 hours | – | – | – |
| O=C(COCC(=O)Oc1cc(Cl)ccc1Oc1ccc(Cl)cc1Cl)Oc1cc(Cl)ccc1Oc1ccc(Cl)cc1Cl [Example 20] | Hydrolyzed in 25 hours | Hydrolyzed in 102 hours | Hydrolyzed 50% only in 53 hours | – | – |
| O=C(COc1ccc(OCC(=O)Oc2cc(Cl)ccc2Oc2ccc(Cl)cc2Cl)cc1)Oc1cc(Cl)ccc1Oc1ccc(Cl)cc1Cl [Compound 19, {4-[5-Chloro-2-(2,4-dichloro-phenoxy)-phenoxycarbonylmethoxy]-phenoxy}-acetic acid 5-chloro-2-(2,4-dichloro-phenoxy)-phenyl ester] | – | Hydrolyzed in 150 hours | – | By TLC it hydrolyzed around 5% in 48 hours | By TLC it hydrolyzed around 15% in 48 hours |
